Assay results reported in patent publication US20140303092A1 (CHIMERIX, INC., priority 2011, published 2014).

Assay: Study HDP-CDV-201: safety and tolerability (adverse events, laboratory abnormalities, discontinuations)
Assay type: in vivo, human (adult allogeneic HSCT recipients)
Details: for Subjects with Hemoglobin <6.5 g/dL / Subjects with Hemoglobin <8-6.5 g/dL / Subjects with Hemoglobin <10-8 g/dL / Subjects with Hemoglobin <LLN-10 g/dL / Subjects with Neutrophils <0.5 GI/L / Subjects with Neutrophils <1.0-0.5 GI/L / Subjects with Neutrophils <1.5-1 GI/L / Subjects with Neutrophils <LLN-1.5 GI/L / Subjects with Platelets <25 GI/L / Subjects with Platelets <50-25 GI/L / Subjects with Platelets <75-50 GI/L / Subjects with Platelets <LLN-75 GI/L / Subjects with Serum Creatinine >1 × ULN-[…] ULN / Subjects with Serum Creatinine >3 × ULN-6 × ULN / Subjects with Serum Creatinine >6 × ULN / Subjects with Serum Creatinine >[…] ULN-3 × ULN / Subjects with WBC <1 GI/L / Subjects with WBC <2-1 GI/L / Subjects with WBC <3-2 GI/L / Subjects with WBC <LLN-3 GI/L: any time during therapy
Experimental: Clinical Studies of HDP-CDV were performed and described in detail in the following Examples. For example, HDP-CDV-201 is a placebo-controlled, dose-escalating trial in HSCT CMV (R+) recipients, evaluating the ability of HDP-CDV to prevent or control CMV infection was carried out. Five cohorts were established in which participants or subjects received either placebo or the HDP-CDV orally, in doses ranging from 40 mg weekly (QW) to 200 mg twice weekly (BIW). Subjects who were post-HSCT were enrolled at the time of engraftment and randomized to HDP-CDV or placebo (3 to 1 ratio) and received blinded therapy until approximately 100 day post-transplantation. HDP-CDV doses were 40 mg QW, 100 mg QW, 200 mg QW, 200 mg BIW and 100 mg BIW. Escalation to the next dose was decided by the data monitoring committee after review of the safety data from the previous Cohort. Subjects who developed CMV disease or CMV infection requiring pre-emptive therapy with local standard of care were discontinued from blinded therapy and followed for 4 weeks. Subjects who completed treatment with blinded therapy were followed for 8 weeks post-therapy.
Data from Study HDP-CDV-201 also provided characterization of the safety and tolerability profile of HDP-CDV when administered for the prevention or control of CMV infection in high risk (R^+) post-HSCT adult subjects.
The Safety population (SAFETY) included all randomized subjects who took at least one dose of study treatment. This population was used to summarize safety outcomes based on the treatment actually received, in cases where a subject was treated contrary to the randomization schedule.
The safety and tolerability profile of HDP-CDV, including subject demographics and Baseline characteristics; the AE profile; and laboratory abnormalities of interest were analyzed in the cohorts followed in this investigation.
Subjects completing the treatment period received a full course of study medication; those completing the entire study attended visits through 8 weeks of follow up. Subjects who discontinued treatment may have done so for protocol specified reasons (e.g. development of clinically significant CMV infection requiring preemptive treatment with excluded anti-CMV medications) or for other reasons (e.g., withdrawal, adverse events, loss to follow-up). The disposition of subjects in Study HDP-CDV-201 during the double-blind, placebo-controlled treatment period (through Week 11) is listed by dosing Cohort in TABLE 23.
Adverse events were examined by severity to ensure that all safety signals were identified in this study population. Because of the frequency of events in HSCT recipients, particular attention was given to evaluation of Grade 3 […], 4 (severe), and 5 (fatal) adverse events.
Only those preferred terms for which at least one Grade 3 or higher event was experienced in any treatment group are listed. Cytomegalovirus-related AEs are excluded from this analysis.
HDP-CDV is a lipid conjugate of CDV. Because CDV is known to have adverse effects on renal function and bone marrow, decreased GFR and persistent neutropenia were identified as AEs of special interest. Key renal and hematological (TABLE 30) laboratory parameters were measured and listed below by Study HDP-CDV-201 treatment groups. TABLE 30 includes abnormal levels of serum creatinine, neutrophils, platelets, WBCs, and hemoglobin and includes data at Screening and during the treatment period.
A common metric for unit based dosing of medications is by weight (mg/kg). When the distribution of weights was examined for all subjects participating in the study, the median was 78 kg and the lower 25th percentile weight was approximately 65 kg, which translates to a cut-off of ˜3 mg/kg for a 200 mg total weekly dose. Based upon this approach, a cut-off of 3 mg/kg was used to assess the frequency of diarrhea and associated GI AEs reported for the subjects in Cohorts 3 or 4a (TABLE 40).

[1] = Cohort 4A, 100 mg BIW, through Week 11

## CCCCCCCCCCCCCCCCOCCCOP(=O)(O)COC(CO)Cn1ccc(N)nc1=O (stereo not drawn) [HDP-CDV]
Cohort 4A, 100 mg BIW, N = 50
  TEAE Cytomegalovirus viremia: 6 (12.0%) n (%)
  TEAE Decreased appetite: 9 (18.0%) n (%)
  TEAE Diarrhoea: 26 (52.0%) n (%)
  TEAE Dysgeusia: 4 (8.0%) n (%)
  TEAE Fatigue: 9 (18.0%) n (%)
  TEAE GI Reflux Disease: 0 n (%)
  TEAE Gamma-glutamyltransferase increased: 4 (8.0%) n (%)
  TEAE Generalized oedema: 1 (2.0%) n (%)
  TEAE Hyperbilirubinaemia: 3 (6.0%) n (%)
  TEAE Hyperglycaemia: 9 (18.0%) n (%)
  TEAE Hyperkalemia: 3 (6.0%) n (%)
  TEAE Hypocalcaemia: 2 (4.0%) n (%)
  TEAE Hypokalaemia: 8 (16.0%) n (%)
  TEAE Hyponatraemia: 1 (2.0%) n (%)
  TEAE Increased leukocytosis: 2 (4.0%) n (%)
  TEAE Insomnia: 9 (18.0%) n (%)
  TEAE Liver function test abnormal: 2 (4.0%) n (%)
  TEAE Malnutrition: 1 (2.0%) n (%)
  TEAE Nausea: 17 (34.0%) n (%)
  TEAE Neutropenia: 10 (20.0%) n (%)
  TEAE Oedema peripheral: 8 (16.0%) n (%)
  TEAE Oral Candidiasis: 6 (12.0%) n (%)
  TEAE Pneumonia: 5 (10.0%) n (%)
  TEAE Pyrexia: 10 (20.0%) n (%)
  TEAE Recurrent flatulence: 3 (6.0%) n (%)
  TEAE Renal Failure: 5 (10.0%) n (%)
  TEAE Staphylococcal Bacteremia: 6 (12.0%) n (%)
  TEAE Thrombocytopenia: 7 (14.0%) n (%)
  TEAE Tremor: 1 (2.0%) n (%)
  TEAE Vomiting: 22 (44.0%) n (%)
  Vomiting leading to study drug withdrawal: 1 (2.0%)
Cohort 4A, 100 mg BIW, N = 50, entire study duration
  All AEs, Grade 5 (deaths): 5 (10.0%)
[1]
  Subjects completed treatment: 30 (60.0%) n (%)
  Subjects who permanently discontinued treatment: 20 (40.0%) n (%)
Cohort 4A, >3.0 mg/kg/wk
  Abnormal ALT >3-5x ULN, Any Time Between Week 2 and Week 10, subjects: 4 (40.0%)
  Abnormal ALT >3-5x ULN, Screening, subjects: 0
  Abnormal ALT >5-10x ULN, Any Time Between Week 2 and Week 10, subjects: 1 (10.0%)
  Abnormal ALT >5-10x ULN, Screening, subjects: 0
  Abnormal ALT >10-20x ULN, Any Time Between Week 2 and Week 10, subjects: 0
  Abnormal ALT >10-20x ULN, Screening, subjects: 0
  Abnormal ALT >20x ULN, Any Time Between Week 2 and Week 10, subjects: 1 (10.0%)
  Abnormal ALT >20x ULN, Screening, subjects: 0
Cohort 4A, ≦3.0 mg/kg/wk
  Abnormal ALT >3-5x ULN, Any Time Between Week 2 and Week 10, subjects: 6 (15.0%)
  Abnormal ALT >3-5x ULN, Screening, subjects: 1 (2.8%)
  Abnormal ALT >5-10x ULN, Any Time Between Week 2 and Week 10, subjects: 3 (7.5%)
  Abnormal ALT >5-10x ULN, Screening, subjects: 1 (2.8%)
  Abnormal ALT >10-20x ULN, Any Time Between Week 2 and Week 10, subjects: 1 (2.5%)
  Abnormal ALT >10-20x ULN, Screening, subjects: 1 (2.8%)
  Abnormal ALT >20x ULN, Any Time Between Week 2 and Week 10, subjects: 0
  Abnormal ALT >20x ULN, Screening, subjects: 0
Cohort 4a
  Grade of hepatobiliary AE cholecystitis, subject 4058: 3
  Grade of hepatobiliary AE hyperbilirubinemia, subject 4080: 1
  Grade of hepatobiliary AE hyperbilirubinemia, subject 4090: 2
  Grade of hepatobiliary AE worsening hyperbilirubinemia, subject 4109: 1
  Outcome of hepatobiliary AE cholecystitis, subject 4058: recovered/resolved
  Outcome of hepatobiliary AE hyperbilirubinemia, subject 4080: not recovered/not
  Outcome of hepatobiliary AE hyperbilirubinemia, subject 4090: recovered/resolved
  Outcome of hepatobiliary AE worsening hyperbilirubinemia, subject 4109: not recovered/not
  Relationship of hepatobiliary AE cholecystitis, subject 4058: not related
  Relationship of hepatobiliary AE hyperbilirubinemia, subject 4080: not related
  Relationship of hepatobiliary AE hyperbilirubinemia, subject 4090: possibly related
  Relationship of hepatobiliary AE worsening hyperbilirubinemia, subject 4109: not related
Cohort 4a (100 mg BIW)
  frequency of SAEs involving the gastrointestinal tract: 42%
Weeks 2 to 4 of dosing, doses of 200 mg per week or higher
  typical ALT increases relative to Baseline: 2-4 times Baseline
After introduction of the safety monitoring and management plan
  subjects who discontinued study drug because of GI AEs: ≤ 10%
Any dose
  Grade 3 or 4 increases in creatinine: no Grade 3 or 4 increases in creatinine
Any dose other than 200 mg BIW
  subjects who discontinued study drug due to GI AEs: less than 10%
40 mg QW
  Subjects with Hemoglobin <6.5 g/dL: 0
  Subjects with Hemoglobin <8-6.5 g/dL: 1 (4.3%)
  Subjects with Hemoglobin <10-8 g/dL: 11 (47.8%)
  Subjects with Hemoglobin <LLN-10 g/dL: 10 (43.5%)
  Subjects with Neutrophils <0.5 GI/L: 0
  Subjects with Neutrophils <1.0-0.5 GI/L: 2 (8.7%)
  Subjects with Neutrophils <1.5-1 GI/L: 5 (21.7%)
  Subjects with Neutrophils <LLN-1.5 GI/L: 4 (17.4%)
  Subjects with Platelets <25 GI/L: 4 (17.4%)
  Subjects with Platelets <50-25 GI/L: 9 (39.1%)
  Subjects with Platelets <75-50 GI/L: 4 (17.4%)
  Subjects with Platelets <LLN-75 GI/L: 6 (26.1%)
  Subjects with Serum Creatinine >1 × ULN-[…] ULN: 8 (34.8%)
  Subjects with Serum Creatinine >3 × ULN-6 × ULN: 0
  Subjects with Serum Creatinine >6 × ULN: 0
  Subjects with Serum Creatinine >[…] ULN-3 × ULN: 2 (8.7%)
  Subjects with WBC <1 GI/L: 0
  Subjects with WBC <2-1 GI/L: 5 (21.7%)
  Subjects with WBC <3-2 GI/L: 6 (26.1%)
  Subjects with WBC <LLN-3 GI/L: 5 (21.7%)
100 mg BIW
  Subjects with Hemoglobin <6.5 g/dL: 1 (2.0%)
  Subjects with Hemoglobin <8-6.5 g/dL: 4 (8.0%)
  Subjects with Hemoglobin <10-8 g/dL: 27 (54.0%)
  Subjects with Hemoglobin <LLN-10 g/dL: 17 (34.0%)
  Subjects with Neutrophils <0.5 GI/L: 3 (6.0%)
  Subjects with Neutrophils <1.0-0.5 GI/L: 10 (20.0%)
  Subjects with Neutrophils <1.5-1 GI/L: 10 (20.0%)
  Subjects with Neutrophils <LLN-1.5 GI/L: 5 (10.0%)
  Subjects with Platelets <25 GI/L: 6 (12.0%)
  Subjects with Platelets <50-25 GI/L: 7 (14.0%)
  Subjects with Platelets <75-50 GI/L: 10 (20.0%)
  Subjects with Platelets <LLN-75 GI/L: 21 (42.0%)
  Subjects with Serum Creatinine >1 × ULN-[…] ULN: 16 (32.0%)
  Subjects with Serum Creatinine >3 × ULN-6 × ULN: 0
  Subjects with Serum Creatinine >6 × ULN: 0
  Subjects with Serum Creatinine >[…] ULN-3 × ULN: 10 (20.0%)
  Subjects with WBC <1 GI/L: 4 (8.0%)
  Subjects with WBC <2-1 GI/L: 8 (16.0%)
  Subjects with WBC <3-2 GI/L: 12 (24.0%)
  Subjects with WBC <LLN-3 GI/L: 11 (22.0%)
100 mg QW
  Subjects with Hemoglobin <6.5 g/dL: 1 (3.7%)
  Subjects with Hemoglobin <8-6.5 g/dL: 1 (3.7%)
  Subjects with Hemoglobin <10-8 g/dL: 12 (44.4%)
  Subjects with Hemoglobin <LLN-10 g/dL: 12 (44.4%)
